The text below walks through data of patent publication US20110144175A1, “METHOD FOR CONTROLLING DEGRADATION OF AGRICULTURAL CHEMICAL ACTIVE INGREDIENT” (priority 2008, published 2011).

The nature of the series: Accelerated preservation test of dustable powder (Cyazofamid content by HPLC). The format is physicochemical. Here is the method:
The dustable powder obtained by Example 1 or Comparative Example was subjected to an accelerated preservation at 54° C. for 14 days, and then the Cyazofamid content in the dustable powder was measured by an HPLC (high performance liquid chromatography) and degradation ratio (%) of Cyazofamid was calculated by the following formula. In this connection, the Cyazofamid content in the dustable powder preserved at 4° C. was measured at the time of measuring the Cyazofamid content in the dustable powder after accelerated preservation, and the value was used as the initial stage content. Degradation ratio (%)=(initial stage content−content after accelerated preservation)/initial stage content×100

For Epoxidized Soybean Oil, the “Degradation Ratio (%) of Cyazofamid” value is given as 5%.
Under Polyoxyethylene Castor Oil stands 7%.
